From patent publication US6953789B2, “Thiol compounds, their production and use” (Takeda Chemical Industries, Ltd., priority 1998, dated 2005) come the findings set out here.

The test system of one assay is nasal cartilage. The assay can be described thus: Assay of cartilage collagen degradation inhibiting activity (IL-1β-stimulated nasal cartilage pieces, hydroxyproline release). Conditions: 504 h; at 1 μM of compound; human recombinant IL-1β; incubation 3 weeks. It is filed as cell-based, cow. Here is the method: A nasal cartilage was isolated aseptically from a sacrificed cow, and preincubated in a Dulbecco's modified eagle medium containing 5% heat-inactivated fetal bovine serum, 100 units/ml of penicillin G and 100 units/ml of streptomycin at 37° C. under 5% CO2 and 95% air for 3 days. After completing the preincubation, a cartilage piece weighing about 10 mg was prepared and placed in 100 μl of a medium supplemented with a human recombinant interleukin-1β (IL-1β: *ZENZYME*) and a test compound. After incubating for 3 weeks in total during which the culture medium was replaced on the weekly basis, the total amount of hydroxyproline liberated into the culture medium and the amount of hydroxyproline remaining in the cartilage piece were determined and % collagen degradation was calculated. The collagen degradation inhibiting activity of a test compound was determined according to the following equation. Collagen degradation inhibiting activity (%)=100×(Ci−Cs)/(Ci−Cc) Equation: wherein Cc is % collagen degradation in the absence of both of IL-1β and compound, Ci is % collagen degradation in the presence of IL-1β, and Cs is a % collagen degradation in the presence of both of IL-1β and a test compound.

Another assay deals with T1, recombinant human MMP-13 (Homo sapiens, UniProt P45452).
T1 construct: made in house; host or cells: baculovirus (pBlueBac4 / Bac-N-Blue; virus made in Sf9), expressed in High-Five insect cells; culture supernatant used
The assay can be described thus: Assay of MMP-13 inhibiting activity (fluorogenic peptide substrate). The assay is classed as biochemical. Conditions: 37° C., 2 hours. The method in brief: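 Baculovirus-expressed human MMP-13 (High-Five cell supernatant) in pH 7.5 Tris buffer with 200 mM NaCl, 20 mM CaCl2, 0.1% Brij 35, 1 mM 2-mercaptoethanol; reaction started with 40 μM (stock) MOCAc-PLGL-A2pr(DNP)-AR-NH2, 2 h at 37 °C, stopped at pH 3.0. Fluorescence 330/405 nm; IC50 versus no-compound control.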

For the molecule `O=C1C[C@@H](S)[C@H](COCc2ccccc2)N1Cc1ccc(Oc2ccccc2)cc1` (relative stereo) [Example 39, Trans-5-benzyloxymethyl-4-mercapto-1-(4-phenoxybenzyl)pyrrolidin-2-one], in the assay with nasal cartilage, the inhibition (as a rule, the drop in the measured response relative to a control, in per cent) at 1 µM was found to be 39%. The IC50 (in general, the concentration at which inhibition is half-maximal) on recombinant human MMP-13 (Table 5) is 9 nM.

`CC(=O)S[C@@H]1CC(=O)N(Cc2ccc(Oc3ccccc3)cc2)C1` [Example 24, (R)-4-Acetylthio-1-(4-phenoxybenzyl)pyrrolidin-2-one]: in the assay with nasal cartilage, the inhibition at 1 µM was determined as 91%. In addition, the IC50 at recombinant human MMP-13 (Table 3) turned out to be 9 nM.

Consider `O=C1C[C@@H](S)CN1Cc1ccc(Oc2ccccc2)cc1` [Example 25, (R)-4-Mercapto-1-(4-phenoxybenzyl)pyrrolidin-2-one], for which, in the assay with nasal cartilage, the inhibition at 1 µM stood at 88%. For the same molecule, on recombinant human MMP-13 (Table 3), the IC50 was found to be 3 nM.

`O=C1C[C@@H](S)CN1Cc1ccc(Oc2ccc(Cl)cc2)cc1` [Example 126, (R)-4-Mercapto-1-[4-(4-chlorophenoxy)benzyl]pyrrolidin-2-one]: the inhibition at 1 µM in the assay with nasal cartilage was determined as 70%. The IC50 on recombinant human MMP-13 (Table 9) amounted to 1.7 nM.

Regarding `CC(=O)SC1CC(=O)N(Cc2ccc(Oc3ccccn3)cc2)C1` (stereo not shown) [Example 156, 4-Acetylthio-1-[4-(2′-pyridyloxy)benzyl]pyrrolidin-2-one], the inhibition at 1 µM in the assay on nasal cartilage came to 84%. Further, the IC50 at recombinant human MMP-13 (Table 11) was 700 nM.
